Test results from ChEMBL document CHEMBL1201862, “PubChem BioAssay data set” (2004).
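Five compound concentrations were applied to cells in 96-well plates for 48 hours; endpoints were derived by simple linear interpolation of the resulting dose-response curve. Here, GI50 denotes the concentration required for 50% inhibition of growth.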 Activity calls are given as the source filed them. No stated cut-off is given here; in the data, active = GI50 up to about 1.1 µM and inactive = higher.

Legend:
Assay in all cases: DTP human tumour cell line panel, 48 h
ACHN = tested on: ACHN
BT-549 = tested on: BT-549
COLO 205 = tested on: COLO 205
HL-60 = tested on: HL-60
HOP-62 = tested on: HOP-62
HT-29 = tested on: HT-29
K562 = tested on: K562
MDA-MB-435 = tested on: MDA-MB-435
MDA-N = tested on: MDA-N
Malme-3M = tested on: Malme-3M
NCI/ADR-RES = tested on: NCI/ADR-RES
OVCAR-3 = tested on: OVCAR-3
PC-3 = tested on: PC-3
SF-268 = tested on: SF-268
SF-539 = tested on: SF-539
SK-MEL-28 = tested on: SK-MEL-28
SN12C = tested on: SN12C
T47D = tested on: T47D
U-251 = tested on: U-251
UO-31 = tested on: UO-31

Structure (SMILES) | GI50 (ACHN) | GI50 (BT-549) | GI50 (COLO 205) | GI50 (HL-60) | GI50 (HOP-62) | GI50 (HT-29) | GI50 (K562) | GI50 (MDA-MB-435) | GI50 (MDA-N) | GI50 (Malme-3M) | GI50 (NCI/ADR-RES) | GI50 (OVCAR-3) | GI50 (PC-3) | GI50 (SF-268) | GI50 (SF-539) | GI50 (SK-MEL-28) | GI50 (SN12C) | GI50 (T47D) | GI50 (U-251) | GI50 (UO-31)
CC1(C)OC(CP(c2ccccc2)c2ccccc2)C(CP(c2ccccc2)c2ccccc2)O1 (stereo not given) | 2.12 µM (inactive) | 2.93 µM (inactive) | 0.0792 µM (active) | 0.0443 µM (active) | 0.418 µM (active) | 0.656 µM (active) | 0.372 µM (active) | 2.16 µM (inactive) | 1.52 µM (inactive) | 1.99 µM (inactive) | > 100 µM (inactive) | 0.0535 µM (active) | 0.0548 µM (active) | 3.81 µM (inactive) | 2.1 µM (inactive) | > 28.2 µM (inactive) | 1.32 µM (inactive) | 0.345 µM (active) | 0.191 µM (active) | 1.69 µM (inactive)
c1ccc2c(c1)N=c1ccccc1=P21c2ccccc2Nc2ccccc21 | 2.4 µM (inactive) | 0.372 µM (active) | 0.129 µM (active) | 0.186 µM (active) | 0.908 µM (active) | 0.0724 µM (active) | 0.202 µM (active) | 0.39 µM (active) | 0.379 µM (active) | 0.242 µM (active) | 76 µM (inactive) | 0.301 µM (active) | 0.242 µM (active) | 0.614 µM (active) | 0.619 µM (active) | 0.986 µM (active) | 1.5 µM (inactive) | 0.192 µM (active) | 0.366 µM (active) | 7.1 µM (inactive)
C=CC[C@]12C=C(OC)[C@@H](O)[C@](OC)(C(c3cc(OC)c4c(c3)OCO4)[C@H]1C)[C@H]2OC(C)=O (stereo not given in full) | > 100 µM (inactive) | > 100 µM (inactive) | > 100 µM (inactive) | 91 µM (inactive) | > 100 µM (inactive) | > 100 µM (inactive) | > 100 µM (inactive) | 94.6 µM (inactive) | > 100 µM (inactive) | > 100 µM (inactive) | > 100 µM (inactive) | > 100 µM (inactive) | 62.5 µM (inactive) | 8.34 µM (inactive) | > 100 µM (inactive) | > 100 µM (inactive) | > 100 µM (inactive) | > 100 µM (inactive) | > 100 µM (inactive) | 89.3 µM (inactive)
N#Cc1c(-c2ccc([N+](=O)[O-])cc2)cc(-c2ccc(Nc3ccnc4cc(Cl)ccc34)cc2)nc1N | 30.5 µM (inactive) | 51.1 µM (inactive) | 25.5 µM (inactive) | 12.4 µM (inactive) | 9.46 µM (inactive) | 2.71 µM (inactive) | 4.56 µM (inactive) | 3.35 µM (inactive) | 3.52 µM (inactive) | 21.5 µM (inactive) | 4.12 µM (inactive) | 6.67 µM (inactive) | 6.49 µM (inactive) | 14.9 µM (inactive) | 31.1 µM (inactive) | 6.25 µM (inactive) | 4.81 µM (inactive) | 4.81 µM (inactive) | 1.84 µM (inactive) | 26.5 µM (inactive)
O=C(O)[C@@H]1C[C@@H](O)CN1 | > 100 µM (inactive) | > 100 µM (inactive) | > 100 µM (inactive) | > 100 µM (inactive) | > 100 µM (inactive) | > 100 µM (inactive) | > 100 µM (inactive) | > 100 µM (inactive) | > 100 µM (inactive) | > 100 µM (inactive) | > 100 µM (inactive) | > 100 µM (inactive) | > 100 µM (inactive) | > 100 µM (inactive) | > 100 µM (inactive) | > 100 µM (inactive) | > 100 µM (inactive) | > 100 µM (inactive) | > 100 µM (inactive) | > 100 µM (inactive)
C[C@]12CC[C@H]3[C@@H](CC=C4C[C@@H](N5CCCC5)CC[C@@]43C)[C@@H]1C[C@H](N1CCCCC1)[C@@H]2O | > 100 µM (inactive) | > 100 µM (inactive) | 93.3 µM (inactive) | 28.2 µM (inactive) | > 100 µM (inactive) | 14.3 µM (inactive) | 16.9 µM (inactive) | 45.4 µM (inactive) | 61.1 µM (inactive) | 42.5 µM (inactive) | > 100 µM (inactive) | > 100 µM (inactive) | > 100 µM (inactive) | > 100 µM (inactive) | 39.7 µM (inactive) | 45.3 µM (inactive) | > 100 µM (inactive) | > 100 µM (inactive) | > 100 µM (inactive) | > 100 µM (inactive)
CS(=O)(=O)c1nc(-c2cc3c(c(S(C)(=O)=O)n2)CCCC3)cc2c1CCCC2 | > 100 µM (inactive) | > 43.2 µM (inactive) | > 100 µM (inactive) | > 100 µM (inactive) | 21 µM (inactive) | > 100 µM (inactive) | > 100 µM (inactive) | > 100 µM (inactive) | > 100 µM (inactive) | > 100 µM (inactive) | > 64.3 µM (inactive) | > 100 µM (inactive) | > 100 µM (inactive) | 11.8 µM (inactive) | > 65.2 µM (inactive) | > 100 µM (inactive) | > 100 µM (inactive) | > 100 µM (inactive) | > 55.3 µM (inactive) | 0.048 µM (active)
